Columns and labels:
[1] = tested on: MCF7 cells; experiment: Cell proliferation assay MCF7; assay type: cell-based; conditions: MCF7 human breast cancer cells; 120 hours; ATPlite 1 Step
Outline: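 Cells grown 24 h in DMEM GlutaMAX/10% FBS, then exposed to compounds in duplicate (≤0.5% DMSO) for 120 h. Viability read as ATP luminescence (ATPlite 1 Step). Seeding set to reach ~90% confluence at harvest.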

[2] = target: T1, KDM2B (FBXL10) (Homo sapiens, UniProt Q8NHM5); experiment: Histone lysine demethylase AlphaLISA assay, KDM2B; assay type: biochemical; conditions: read-out: KDM2B HDME Inhibition IC50
T1 sequence (Q8NHM5 1-650): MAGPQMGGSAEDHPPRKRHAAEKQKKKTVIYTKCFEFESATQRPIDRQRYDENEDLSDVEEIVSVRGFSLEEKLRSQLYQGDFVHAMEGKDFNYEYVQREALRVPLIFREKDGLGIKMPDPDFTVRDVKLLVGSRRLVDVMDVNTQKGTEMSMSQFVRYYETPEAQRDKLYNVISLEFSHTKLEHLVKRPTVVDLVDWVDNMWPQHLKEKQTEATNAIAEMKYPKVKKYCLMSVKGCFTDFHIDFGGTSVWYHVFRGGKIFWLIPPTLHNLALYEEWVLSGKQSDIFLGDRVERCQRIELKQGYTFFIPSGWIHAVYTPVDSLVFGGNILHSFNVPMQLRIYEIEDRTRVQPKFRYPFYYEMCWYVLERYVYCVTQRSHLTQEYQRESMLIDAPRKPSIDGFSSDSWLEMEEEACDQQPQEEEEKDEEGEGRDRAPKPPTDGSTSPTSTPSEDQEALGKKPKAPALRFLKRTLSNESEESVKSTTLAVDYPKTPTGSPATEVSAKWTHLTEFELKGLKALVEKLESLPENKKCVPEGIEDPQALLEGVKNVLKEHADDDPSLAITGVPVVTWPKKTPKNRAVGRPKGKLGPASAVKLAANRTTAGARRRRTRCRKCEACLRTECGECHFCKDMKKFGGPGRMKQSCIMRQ
Outline: (§1)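 AlphaLISA demethylation readout: enzyme preincubated 10 min, then 10 min with compounds in 3% DMSO buffer, before biotinylated methyl-lysine histone peptide substrate with 25 μM L-Asc and 10 μM α-KG, room temperature. Acceptor beads then streptavidin donor beads added, dark incubation, plates read.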

[3] = target: T2, KDM3B (JMJD1B) (Homo sapiens, UniProt Q7LBC6); experiment: Histone lysine demethylase AlphaLISA assay, KDM3B; assay type: biochemical; conditions: read-out: KDM3B HDME Inhibition IC50
T2 construct: 842-1761; host or cells: Bac (baculovirus system)
T2 sequence (Q7LBC6 842-1761): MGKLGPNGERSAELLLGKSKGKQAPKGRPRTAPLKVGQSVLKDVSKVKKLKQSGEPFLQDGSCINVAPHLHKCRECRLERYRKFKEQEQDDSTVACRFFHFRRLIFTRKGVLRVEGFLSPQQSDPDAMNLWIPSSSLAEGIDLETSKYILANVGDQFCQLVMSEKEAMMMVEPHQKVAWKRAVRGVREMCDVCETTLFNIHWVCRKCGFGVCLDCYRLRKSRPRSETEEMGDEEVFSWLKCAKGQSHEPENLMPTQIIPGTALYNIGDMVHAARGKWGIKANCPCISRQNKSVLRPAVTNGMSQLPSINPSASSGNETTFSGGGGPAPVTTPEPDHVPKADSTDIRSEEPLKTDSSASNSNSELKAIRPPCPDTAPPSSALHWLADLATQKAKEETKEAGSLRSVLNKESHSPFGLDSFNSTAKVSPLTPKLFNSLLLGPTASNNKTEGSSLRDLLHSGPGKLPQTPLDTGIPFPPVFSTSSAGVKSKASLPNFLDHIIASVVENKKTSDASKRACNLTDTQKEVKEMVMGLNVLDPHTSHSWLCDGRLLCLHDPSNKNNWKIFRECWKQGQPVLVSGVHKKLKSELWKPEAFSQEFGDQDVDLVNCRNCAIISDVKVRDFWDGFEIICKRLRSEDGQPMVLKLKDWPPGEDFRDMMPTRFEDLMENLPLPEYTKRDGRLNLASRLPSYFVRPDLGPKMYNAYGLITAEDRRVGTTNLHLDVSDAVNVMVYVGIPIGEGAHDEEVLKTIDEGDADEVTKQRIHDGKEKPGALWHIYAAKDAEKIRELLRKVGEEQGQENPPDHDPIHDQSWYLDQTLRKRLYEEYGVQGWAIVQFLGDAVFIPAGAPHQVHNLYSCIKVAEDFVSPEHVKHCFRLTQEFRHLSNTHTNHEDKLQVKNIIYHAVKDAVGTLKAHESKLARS
Outline: as §1

[4] = target: T3, KDM5C (JARID1C) (Homo sapiens, UniProt P41229); experiment: Histone lysine demethylase AlphaLISA assay, KDM5C; assay type: biochemical; conditions: read-out: KDM5C HDME Inhibition IC50
T3 construct: 2-1560; purchased BPS; host or cells: Bac (baculovirus system)
Outline: as §1

T3 sequence (P41229 2-1560): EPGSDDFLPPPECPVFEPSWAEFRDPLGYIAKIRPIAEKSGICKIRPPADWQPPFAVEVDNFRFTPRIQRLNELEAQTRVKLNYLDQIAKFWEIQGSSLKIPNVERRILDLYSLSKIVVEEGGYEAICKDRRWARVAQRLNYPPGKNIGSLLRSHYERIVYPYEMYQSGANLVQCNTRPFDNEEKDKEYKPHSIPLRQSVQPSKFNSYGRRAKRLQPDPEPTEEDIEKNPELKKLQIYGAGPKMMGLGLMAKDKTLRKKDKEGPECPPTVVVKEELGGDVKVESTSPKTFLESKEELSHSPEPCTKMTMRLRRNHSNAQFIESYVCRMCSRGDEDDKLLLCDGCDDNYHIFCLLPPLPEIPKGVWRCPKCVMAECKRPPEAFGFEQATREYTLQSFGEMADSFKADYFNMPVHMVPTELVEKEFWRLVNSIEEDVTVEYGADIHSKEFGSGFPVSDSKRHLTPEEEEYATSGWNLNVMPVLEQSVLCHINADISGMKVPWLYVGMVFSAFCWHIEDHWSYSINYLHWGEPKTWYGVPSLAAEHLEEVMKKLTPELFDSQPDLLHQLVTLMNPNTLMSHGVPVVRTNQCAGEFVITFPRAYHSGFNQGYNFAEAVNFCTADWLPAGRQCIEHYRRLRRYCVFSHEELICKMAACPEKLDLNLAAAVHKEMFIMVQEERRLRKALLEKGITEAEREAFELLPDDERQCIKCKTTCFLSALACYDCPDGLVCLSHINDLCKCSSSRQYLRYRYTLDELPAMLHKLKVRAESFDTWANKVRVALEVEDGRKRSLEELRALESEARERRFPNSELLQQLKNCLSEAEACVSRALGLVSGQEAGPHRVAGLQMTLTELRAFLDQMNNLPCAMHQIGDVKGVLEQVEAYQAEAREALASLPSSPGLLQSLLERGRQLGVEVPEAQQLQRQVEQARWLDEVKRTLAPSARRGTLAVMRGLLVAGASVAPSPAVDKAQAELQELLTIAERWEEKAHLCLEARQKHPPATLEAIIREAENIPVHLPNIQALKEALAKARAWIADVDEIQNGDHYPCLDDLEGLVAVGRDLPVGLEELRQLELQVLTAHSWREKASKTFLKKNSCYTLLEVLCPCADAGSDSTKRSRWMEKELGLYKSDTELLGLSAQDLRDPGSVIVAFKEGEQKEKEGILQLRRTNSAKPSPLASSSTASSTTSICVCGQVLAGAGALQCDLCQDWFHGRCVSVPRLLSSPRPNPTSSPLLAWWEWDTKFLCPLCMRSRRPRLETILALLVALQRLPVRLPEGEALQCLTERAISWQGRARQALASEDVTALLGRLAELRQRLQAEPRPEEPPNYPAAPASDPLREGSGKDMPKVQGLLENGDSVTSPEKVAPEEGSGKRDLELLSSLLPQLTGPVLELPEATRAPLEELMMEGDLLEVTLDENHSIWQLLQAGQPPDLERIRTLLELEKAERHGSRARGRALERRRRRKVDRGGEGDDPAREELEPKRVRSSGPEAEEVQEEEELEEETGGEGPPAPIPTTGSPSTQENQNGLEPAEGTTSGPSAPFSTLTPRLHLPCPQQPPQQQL

Compound	EC50 [1]	IC50 [2]	IC50 [3]	IC50 [4]
CN(C)CCCCNCc1cc(CN)ccn1 [Compound 2, [2-({[4-(dimethylamino)butyl]-amino}methyl)pyridin-4-yl]methanamine]	< 250 nM	> 2500 nM	> 2500 nM	–
CN(C)CCNCc1ccnc(CNCCCN(C)Cc2ccccc2)c1 [Compound 18, benzyl[3-({[4-({[2-(dimethylamino)ethyl]-amino}methyl)pyridin-2-yl]methyl}-amino)propyl]-methylamine]	–	> 2500 nM	> 2500 nM	–
COCCNCc1ccnc(CNCCCN(C)Cc2ccccc2)c1 [Compound 19, benzyl(3-{[(4-{[(2-methoxyethyl)amino]-methyl}pyridin-2-yl)methyl]amino}-propyl)methylamine]	–	> 2500 nM	> 2500 nM	> 2500 nM
COc1ccccc1CN1CCC(NC(=O)CNCc2cc(CNC3CC3)ccn2)CC1 [Compound 20, 2-[({4-[(cyclopropylamino)-methyl]pyridin-2-yl}methyl)amino]-N-{1-[(2-methoxyphenyl)methyl]-piperidin-4-yl}acetamide]	–	> 2500 nM	> 2500 nM	< 250 nM
CCN(CCN(C)C)C(=O)CN(Cc1cc(CNC(=O)C(F)(F)F)ccn1)C(=O)C(F)(F)F [Compound 26, N-[(2-{[N-({[2-(dimethylamino)ethyl]-(ethyl)carbamoyl}-methyl)-2,2,2-trifluoroacetamido]-methyl}pyridin-4-yl)methyl]-2,2,2-trifIuoroacetamide]	< 250 nM	–	–	–
COC(=O)CNCc1cc(/C=N/C2CC2)ccn1 [Compound 59, methyl 2-[({4-[N-cyclopropyl-carboximidoyl]pyridin-2-yl}methyl)amino]-acetate]	–	–	> 2500 nM	< 250 nM
CCN(CC)CCCCNCc1cc(C2NCCCN2C)ccn1 (stereo not drawn) [Compound 68, [4-(diethylamino)butyl]({[4-(1-methyl-1,3-diazinan-2-yl)pyridin-2-yl]methyl})amine]	< 250 nM	–	–	–
O=Cc1ccnc(CNCCCCN(Cc2ccccc2)C2CC2)c1 [Compound 109, 2-[({4-[benzyl-(cyclopropyl)amino]-butyl}amino)methyl]-pyridine-4-carbaldehyde]	–	–	> 2500 nM	–
O=Cc1ccnc(CNCC(=O)NC2CCN(Cc3ccccc3)C2)c1 (stereo not drawn) [Compound 113, N-(1-benzylpyrrolidin-3-yl)-2-{[(4-formylpyridin-2-yl)methyl]amino}-acetamide]	–	–	> 2500 nM	250 to 2500 nM
